For this assay, the system named is CD2F1 mice, L1210 leukemia ip, survival T/C. The assay is described as follows: NCI In Vivo Anticancer Drug Screen. Data for tumor model L1210 Leukemia (intraperitoneal) in CD2F1 (CDF1) mice. To be noted: endpoint: mean survival time, higher = longer survival. The essentials: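 Vehicle-treated tumor-bearing mice served as controls (C) for compound-treated mice (T). Reported figure is T divided by C.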

Setting [1] is: dose: 100.0 mg/kg/injection, schedule: Q01DX001 (ip), vehicle: saline.
Setting [2] is: dose: 200.0 mg/kg/injection, schedule: Q01DX001 (ip), vehicle: saline.
Setting [3] is: dose: 400.0 mg/kg/injection, schedule: Q01DX001 (ip), vehicle: saline.
The mark [4] stands for this setting: dose: 100.0 mg/kg/injection, schedule: Q01DX001 (ip), vehicle: saline with Tween-80.
The mark [5] stands for this setting: dose: 100.0 mg/kg/injection, schedule: Q01DX009 (ip), vehicle: saline with Tween-80.
[6] abbreviates: dose: 100.0 mg/kg/injection, schedule: Q04DX003 (ip), vehicle: saline with Tween-80.
Where [7] appears, read: dose: 200.0 mg/kg/injection, schedule: Q01DX001 (ip), vehicle: saline with Tween-80.
Setting [8] is: dose: 200.0 mg/kg/injection, schedule: Q01DX009 (ip), vehicle: saline with Tween-80.
[9] abbreviates: dose: 200.0 mg/kg/injection, schedule: Q04DX003 (ip), vehicle: saline with Tween-80.
[10] abbreviates: dose: 400.0 mg/kg/injection, schedule: Q01DX001 (ip), vehicle: saline with Tween-80.
The mark [11] stands for this setting: dose: 400.0 mg/kg/injection, schedule: Q01DX009 (ip), vehicle: saline with Tween-80.
Setting [12] is: dose: 400.0 mg/kg/injection, schedule: Q04DX003 (ip), vehicle: saline with Tween-80.
The mark [13] stands for this setting: dose: 100.0 mg/kg/injection, schedule: Q01DX009 (ip), vehicle: saline.
Where [14] appears, read: dose: 100.0 mg/kg/injection, schedule: Q04DX003 (ip), vehicle: saline.
Where [15] appears, read: dose: 200.0 mg/kg/injection, schedule: Q04DX003 (ip), vehicle: saline.

Several values for one entry are separate records, joined by “and”; a condition that tells them apart may be missing. Equal entries are not always repeated. Inconclusive results and toxic doses are left out.

For the compound `O=C(CSCC(=O)c1ccc(Br)cc1)c1ccc(Br)cc1`, the T/C is 112 % of control under setting [1], 98 % of control under setting [2] and 101 % of control under setting [3].

As for `CCC1(C)C(=O)c2ccccc2N(C)C1=O` (stereo not given), the T/C was 95 % of control under setting [4]; 93 % of control under setting [5]; 103 % of control and 106 % of control (dose: 100.0 mg/kg/injection, schedule: Q04DX002 (ip), vehicle: saline with Tween-80); 97 % of control under setting [6]; 100 % of control under setting [7]; 93 % of control and 102 % of control under setting [8]. Further, the T/C reads like this: (dose: 200.0 mg/kg/injection, schedule: Q04DX002 (ip), vehicle: saline with Tween-80) 104 % of control and 110 % of control; under setting [9], 100 % of control; under setting [10], 95 % of control; under setting [11], 101 % of control and 102 % of control; (dose: 400.0 mg/kg/injection, schedule: Q04DX002 (ip), vehicle: saline with Tween-80) 109 % of control and 110 % of control; under setting [12], 100 % of control.

Regarding `N#CN(Cc1ccc(Cl)cc1Cl)C(=O)OCOc1ccc(Cl)cc1`, the T/C by setting is: under setting [6], 88 % of control; under setting [9], 89 % of control; under setting [12], 96 % of control.

For `COC1OC(CN=[N+]=[N-])C(N=[N+]=[N-])C(OS(C)(=O)=O)C1OS(C)(=O)=O` (stereo not given), the T/C under setting [5] was 95 % of control, the T/C under setting [8] is 95 % of control and the T/C under setting [11] is 90 % of control.

For the compound `Cc1cc(S(N)(=O)=O)c(N)c(S(N)(=O)=O)c1`, the T/C under setting [6] is 96 % of control, the T/C under setting [9] was 93 % of control and the T/C under setting [12] is 102 % of control.

On to `CN(C)N=Nc1ccc(S(=O)(=O)Nc2ncccn2)cc1`, for which the T/C runs as follows: (dose: 25.0 mg/kg/injection, schedule: Q01DX009 (ip), vehicle: saline with Tween-80) 120 % of control; (dose: 50.0 mg/kg/injection, schedule: Q01DX009 (ip), vehicle: saline with Tween-80) 124 % of control; under setting [6], 113 % of control; under setting [12], 157 % of control.

Consider `ClC1CCCC[N-]1.ClC1CCCC[N-]1.[Cl][Pt+2][Cl]` (stereo not given), for which the T/C reads like this: (dose: 12.5 mg/kg/injection, schedule: Q01DX009 (ip), vehicle: Klucel (hydroxypropylcellulose) (HPC)) 103 % of control; (dose: 25.0 mg/kg/injection, schedule: Q01DX009 (ip), vehicle: Klucel (hydroxypropylcellulose) (HPC)) 100 % of control; (dose: 50.0 mg/kg/injection, schedule: Q01DX009 (ip), vehicle: Klucel (hydroxypropylcellulose) (HPC)) 95 % of control; (dose: 100.0 mg/kg/injection, schedule: Q01DX009 (ip), vehicle: Klucel (hydroxypropylcellulose) (HPC)) 94 % of control; (dose: 200.0 mg/kg/injection, schedule: Q01DX009 (ip), vehicle: Klucel (hydroxypropylcellulose) (HPC)) 97 % of control.

On to `N#CC(c1ccccc1)C1CCCCC1` (stereo not given), for which the T/C is, setting by setting: (dose: 75.0 mg/kg/injection, schedule: Q01DX009 (ip), vehicle: saline) 95 % of control; (dose: 150.0 mg/kg/injection, schedule: Q01DX009 (ip), vehicle: saline) 106 % of control; (dose: 300.0 mg/kg/injection, schedule: Q01DX009 (ip), vehicle: saline) 108 % of control.

For `Nc1ccc(CNC(=O)Nc2ccc(S(=O)(=O)F)cc2)cc1`, the T/C runs as follows: (dose: 25.0 mg/kg/injection, schedule: Q04DX003 (ip), vehicle: saline with Tween-80) 95 % of control; (dose: 50.0 mg/kg/injection, schedule: Q04DX003 (ip), vehicle: saline with Tween-80) 91 % of control; under setting [6], 110 % of control; under setting [9], 92 % of control; under setting [12], 92 % of control.

Consider `BrC1=C(c2ccccc2)SC(Br)=C(c2ccccc2)S1`, for which the T/C runs as follows: under setting [4], 94 % of control; under setting [7], 87 % of control; under setting [10], 91 % of control.

For the compound `Cc1ccc(S(=O)(=O)OCCc2cccc3ccccc23)cc1`, the T/C was 101 % of control under setting [1], 101 % of control under setting [2] and 98 % of control under setting [3].

On to `COc1cccc(C(=O)NC[n+]2cccc(O)c2)c1`, for which the T/C is 100 % of control under setting [4], 92 % of control under setting [7] and 88 % of control under setting [10].

In the case of `CCOC(=O)c1cnc(SCc2ccccc2)[nH]c1=O`, the T/C under setting [6] is 107 % of control, the T/C under setting [9] was 110 % of control and the T/C under setting [12] is 102 % of control.

`CSc1ccc(NC(=O)C(O)C(O)C(O)C(O)CO)cc1` (stereo not given): the T/C under setting [13] is 103 % of control; the T/C (dose: 200.0 mg/kg/injection, schedule: Q01DX009 (ip), vehicle: saline) was 113 % of control; the T/C (dose: 400.0 mg/kg/injection, schedule: Q01DX009 (ip), vehicle: saline) was 102 % of control.

In the case of `COc1cc2c(cc1OC)NC(=O)CC(=O)N2`, the T/C is, setting by setting: under setting [9], 91 % of control; under setting [12], 98 % of control.

`CCOC(=O)c1cnc(N(C)C)nc1SC(=N)N`: the T/C runs as follows: (dose: 50.0 mg/kg/injection, schedule: Q01DX009 (ip), vehicle: saline) 102 % of control; under setting [13], 118 % of control; under setting [14], 106 % of control; under setting [15], 91 % of control.

Take `CN(C)P(=O)(OP(=O)(N(C)C)N(C)C)N(C)C`: the T/C (dose: 2.0 mg/kg/injection, schedule: Q04DX003 (ip), vehicle: saline) was 102 % of control; the T/C (dose: 4.0 mg/kg/injection, schedule: Q04DX003 (ip), vehicle: saline) was 98 % of control; the T/C (dose: 8.0 mg/kg/injection, schedule: Q04DX003 (ip), vehicle: saline) was 100 % of control.

Turning to `ClC1(Cl)C2CCCCC21` (stereo not given), the T/C was 98 % of control (dose: 50.0 mg/kg/injection, schedule: Q01DX009 (ip), vehicle: saline sonified); 98 % of control (dose: 100.0 mg/kg/injection, schedule: Q01DX009 (ip), vehicle: saline sonified); 98 % of control under setting [6]; 97 % of control (dose: 200.0 mg/kg/injection, schedule: Q01DX009 (ip), vehicle: saline sonified); 97 % of control under setting [9].

As for `O.O.O=C(O)c1ccccc1C(=O)O.[NH-]C1CCCCC1[NH-].[Pt+2]`, the T/C (dose: 3.13 mg/kg/injection, schedule: Q04DX003 (ip), vehicle: dextrose) is 109 % of control; the T/C (dose: 6.25 mg/kg/injection, schedule: Q04DX003 (ip), vehicle: dextrose) is 106 % of control; the T/C (dose: 25.0 mg/kg/injection, schedule: Q04DX003 (ip), vehicle: dextrose) was 106 % of control; the T/C (dose: 50.0 mg/kg/injection, schedule: Q04DX003 (ip), vehicle: dextrose) is 95 % of control.

Turning to `CCCOC(=O)c1ccc(N)cc1`, the T/C by setting is: under setting [4], 102 % of control; under setting [7], 104 % of control; under setting [10], 103 % of control.

`CC(=O)NS(=O)(=O)c1ccc(NC(=O)/C=C/C(=O)O)cc1`: the T/C by setting is: under setting [14], 100 % of control; under setting [15], 100 % of control; (dose: 400.0 mg/kg/injection, schedule: Q04DX003 (ip), vehicle: saline) 100 % of control.

The values above are taken from PubChem BioAssay AID256 (DTP/NCI, 2004).
